Laboratory results: the supplement of paper PMC10307832

Assays:
Assay in all cases: relative viability (nuclei count vs DMSO), 5 days (fraction); higher = more cells survive
EKVX = tested on: EKVX
Method in brief: (§1)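 Values are medians from duplicate plates. Each reflects relative viability, defined as the nuclei count of treated wells over that of vehicle wells. Lung cancer cell lines in 1536-well plates were pin-tool dosed one day after seeding with one drug alone or with a fixed anchor-drug dose plus five library-drug doses (not always all listed) in √10 steps, then fixed, stained and imaged at 4× after 5 days.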

NCI-H1648 = tested on: NCI-H1648
Method in brief: as §1

NCI-H1395 = tested on: NCI-H1395
Method in brief: as §1

NCI-H1755 = tested on: NCI-H1755
Method in brief: as §1

HCC-44 = tested on: HCC-44
Method in brief: as §1

NCI-H1703 = tested on: NCI-H1703
Method in brief: as §1

LCLC-103H = tested on: LCLC-103H
Method in brief: as §1

HCC-15 = tested on: HCC-15
Method in brief: as §1

IA-LM = tested on: IA-LM
Method in brief: as §1

UMC-11 = tested on: UMC-11
Method in brief: as §1

EBC-1 = tested on: EBC-1
Method in brief: as §1

Calu-6 = tested on: Calu-6
Method in brief: as §1

A549 = tested on: A549
Method in brief: as §1

NCI-H1299 = tested on: NCI-H1299
Method in brief: as §1

Compound `COc1nc(C)cnc1NS(=O)(=O)c1cccnc1-c1ccc(-c2nnco2)cc1` [Zibotentan] + NC(=O)Nc1cc(-c2cccc(F)c2)sc1C(=O)N[C@H]1CCCNC1 [AZD7762] (partner 0.2 µM) has a relative viability (EKVX; first compound 0.08 µM) of 0.742, a relative viability (EKVX; first compound 0.253 µM) of 0.648 and a relative viability (EKVX; first compound 0.8 µM) of 0.718. For the same compound, the relative viability (EKVX; first compound 2.53 µM) was 0.766, the relative viability (NCI-H1648; first compound 0.08 µM) was 0.637 and the relative viability (NCI-H1648; first compound 0.253 µM) was 0.596. For the same compound, the relative viability (NCI-H1648; first compound 0.8 µM) was 0.596, the relative viability (NCI-H1648; first compound 2.53 µM) was 0.63 and the relative viability (NCI-H1395; first compound 0.08 µM) was 0.417. For the same compound, the relative viability (NCI-H1395; first compound 0.253 µM) was 0.349, the relative viability (NCI-H1395; first compound 0.8 µM) was 0.401 and the relative viability (NCI-H1395; first compound 2.53 µM) was 0.441. For the same compound, the relative viability (NCI-H1755; first compound 0.08 µM) was 0.452, the relative viability (NCI-H1755; first compound 0.253 µM) was 0.464 and the relative viability (NCI-H1755; first compound 0.8 µM) was 0.387. For the same compound, the relative viability (NCI-H1755; first compound 2.53 µM) was 0.471, the relative viability (HCC-44; first compound 0.08 µM) was 1.01 and the relative viability (HCC-44; first compound 0.253 µM) was 0.962. It also gave a relative viability (HCC-44; first compound 0.8 µM) of 0.968, a relative viability (HCC-44; first compound 2.53 µM) of 1.03 and a relative viability (NCI-H1703; first compound 0.08 µM) of 0.139. It also gave a relative viability (NCI-H1703; first compound 0.253 µM) of 0.114, a relative viability (NCI-H1703; first compound 0.8 µM) of 0.108 and a relative viability (NCI-H1703; first compound 2.53 µM) of 0.121. For the same compound, the relative viability (LCLC-103H; first compound 0.08 µM) was 0.77, the relative viability (LCLC-103H; first compound 0.253 µM) was 0.786 and the relative viability (LCLC-103H; first compound 0.8 µM) was 0.778. It also gave a relative viability (LCLC-103H; first compound 2.53 µM) of 0.752, a relative viability (HCC-15; first compound 0.08 µM) of 1.3 and a relative viability (HCC-15; first compound 0.253 µM) of 1.28. It also gave a relative viability (HCC-15; first compound 0.8 µM) of 1.18 and a relative viability (HCC-15; first compound 2.53 µM) of 1.26.
For `COc1nc(C)cnc1NS(=O)(=O)c1cccnc1-c1ccc(-c2nnco2)cc1` [Zibotentan] + O=C(CCCCCCC(=O)Nc1ccccc1)NO [Vorinostat] (partner 1 µM), the relative viability (IA-LM; first compound 0.08 µM) was 0.881, the relative viability (IA-LM; first compound 0.253 µM) was 0.981 and the relative viability (IA-LM; first compound 0.8 µM) was 0.9. It also gave a relative viability (IA-LM; first compound 2.53 µM) of 0.939, a relative viability (EKVX; first compound 0.08 µM) of 0.675 and a relative viability (EKVX; first compound 0.253 µM) of 0.818. The relative viability (EKVX; first compound 0.8 µM) was 0.727, the relative viability (EKVX; first compound 2.53 µM) was 0.777 and the relative viability (NCI-H1648; first compound 0.08 µM) was 0.574. The relative viability (NCI-H1648; first compound 0.253 µM) was 0.331, the relative viability (NCI-H1648; first compound 0.8 µM) was 0.54 and the relative viability (NCI-H1648; first compound 2.53 µM) was 0.483. It also gave a relative viability (NCI-H1395; first compound 0.08 µM) of 0.809, a relative viability (NCI-H1395; first compound 0.253 µM) of 0.502 and a relative viability (NCI-H1395; first compound 0.8 µM) of 0.698. It also gave a relative viability (NCI-H1395; first compound 2.53 µM) of 0.951, a relative viability (NCI-H1755; first compound 0.08 µM) of 0.851 and a relative viability (NCI-H1755; first compound 0.253 µM) of 0.742. For the same compound, the relative viability (NCI-H1755; first compound 0.8 µM) was 0.803, the relative viability (NCI-H1755; first compound 2.53 µM) was 0.818 and the relative viability (HCC-44; first compound 0.08 µM) was 1.12. It also gave a relative viability (HCC-44; first compound 0.253 µM) of 1.08, a relative viability (HCC-44; first compound 0.8 µM) of 1.02 and a relative viability (HCC-44; first compound 2.53 µM) of 1.08. It also gave a relative viability (LCLC-103H; first compound 0.08 µM) of 0.801, a relative viability (LCLC-103H; first compound 0.253 µM) of 0.842 and a relative viability (LCLC-103H; first compound 0.8 µM) of 0.722. It also gave a relative viability (LCLC-103H; first compound 2.53 µM) of 0.839, a relative viability (UMC-11; first compound 0.08 µM) of 0.408 and a relative viability (UMC-11; first compound 0.253 µM) of 0.418. For the same compound, the relative viability (UMC-11; first compound 0.8 µM) was 0.384, the relative viability (UMC-11; first compound 2.53 µM) was 0.293 and the relative viability (HCC-15; first compound 0.08 µM) was 0.859. For the same compound, the relative viability (HCC-15; first compound 0.253 µM) was 0.863, the relative viability (HCC-15; first compound 0.8 µM) was 0.879 and the relative viability (HCC-15; first compound 2.53 µM) was 0.84.
In the case of `COc1nc(C)cnc1NS(=O)(=O)c1cccnc1-c1ccc(-c2nnco2)cc1` [Zibotentan] + O=C(c1cc(Cc2n[nH]c(=O)c3ccccc23)ccc1F)N1CCN(C(=O)C2CC2)CC1 [Olaparib] (partner 8 µM), the relative viability (IA-LM; first compound 0.08 µM) is reported as 0.966, the relative viability (IA-LM; first compound 0.253 µM) is reported as 0.86 and the relative viability (IA-LM; first compound 0.8 µM) is reported as 0.938. For the same compound, the relative viability (IA-LM; first compound 2.53 µM) was 0.824, the relative viability (EKVX; first compound 0.08 µM) was 0.909 and the relative viability (EKVX; first compound 0.253 µM) was 0.733. It also gave a relative viability (EKVX; first compound 0.8 µM) of 0.799, a relative viability (EKVX; first compound 2.53 µM) of 0.917 and a relative viability (EBC-1; first compound 0.08 µM) of 0.698. It also gave a relative viability (EBC-1; first compound 0.253 µM) of 0.713, a relative viability (EBC-1; first compound 0.8 µM) of 0.827 and a relative viability (EBC-1; first compound 2.53 µM) of 0.651. It also gave a relative viability (NCI-H1648; first compound 0.08 µM) of 0.853, a relative viability (NCI-H1648; first compound 0.253 µM) of 0.503 and a relative viability (NCI-H1648; first compound 0.8 µM) of 0.85. For the same compound, the relative viability (NCI-H1648; first compound 2.53 µM) was 0.954, the relative viability (Calu-6; first compound 0.08 µM) was 0.61 and the relative viability (Calu-6; first compound 0.253 µM) was 0.518. It also gave a relative viability (Calu-6; first compound 0.8 µM) of 0.621, a relative viability (Calu-6; first compound 2.53 µM) of 0.555 and a relative viability (NCI-H1395; first compound 0.08 µM) of 0.401. The relative viability (NCI-H1395; first compound 0.253 µM) was 0.486, the relative viability (NCI-H1395; first compound 0.8 µM) was 0.436 and the relative viability (NCI-H1395; first compound 2.53 µM) was 0.495. For the same compound, the relative viability (A549; first compound 0.08 µM) was 0.365, the relative viability (A549; first compound 0.253 µM) was 0.31 and the relative viability (A549; first compound 0.8 µM) was 0.333. The relative viability (A549; first compound 2.53 µM) was 0.32, the relative viability (NCI-H1299; first compound 0.08 µM) was 1.01 and the relative viability (NCI-H1299; first compound 0.253 µM) was 0.906. The relative viability (NCI-H1299; first compound 0.8 µM) was 0.973, the relative viability (NCI-H1299; first compound 2.53 µM) was 1 and the relative viability (NCI-H1755; first compound 0.08 µM) was 0.893. For the same compound, the relative viability (NCI-H1755; first compound 0.253 µM) was 0.846, the relative viability (NCI-H1755; first compound 0.8 µM) was 0.908 and the relative viability (NCI-H1755; first compound 2.53 µM) was 0.907. The relative viability (HCC-44; first compound 0.08 µM) was 0.958, the relative viability (HCC-44; first compound 0.253 µM) was 0.965 and the relative viability (HCC-44; first compound 0.8 µM) was 0.98. It also gave a relative viability (HCC-44; first compound 2.53 µM) of 0.957, a relative viability (NCI-H1703; first compound 0.08 µM) of 0.476 and a relative viability (NCI-H1703; first compound 0.253 µM) of 0.368. For the same compound, the relative viability (NCI-H1703; first compound 0.8 µM) was 0.435, the relative viability (NCI-H1703; first compound 2.53 µM) was 0.292 and the relative viability (LCLC-103H; first compound 0.08 µM) was 0.738. For the same compound, the relative viability (LCLC-103H; first compound 0.253 µM) was 0.74, the relative viability (LCLC-103H; first compound 0.8 µM) was 0.696 and the relative viability (LCLC-103H; first compound 2.53 µM) was 0.751. It also gave a relative viability (UMC-11; first compound 0.08 µM) of 0.321, a relative viability (UMC-11; first compound 0.253 µM) of 0.409 and a relative viability (UMC-11; first compound 0.8 µM) of 0.44. It also gave a relative viability (UMC-11; first compound 2.53 µM) of 0.438, a relative viability (HCC-15; first compound 0.08 µM) of 0.717 and a relative viability (HCC-15; first compound 0.253 µM) of 0.703. For the same compound, the relative viability (HCC-15; first compound 0.8 µM) was 0.774 and the relative viability (HCC-15; first compound 2.53 µM) was 0.649.
